# Data reported in PubChem BioAssay (NCI).
#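 96-well plates; 48 h exposure; 5 concentrations. Endpoints by linear interpolation between flanking doses. Not reached: highest tested concentration assigned. TGI denotes the concentration required for complete inhibition of growth.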
# Columns and labels:
# Experiment in all cases: inhibition of tumour cell growth, NCI panel, 48 h
# [1] = test system: TK-10 renal
# [2] = test system: NCI-H522 lung
# [3] = test system: SF-295 CNS
# [4] = test system: HOP-92 NSCLC
# [5] = test system: HT29 colon
# [6] = test system: SN12C renal
# [7] = test system: NCI-H23 lung
# [8] = test system: SW-620 colon
# [9] = test system: PC-3 prostate
# [10] = test system: SK-OV-3 ovarian
# [11] = test system: K-562 leukemia
# [12] = test system: MOLT-4 leukemia
# [13] = test system: SF-539 CNS
# [14] = test system: RPMI-8226 leukemia
# [15] = test system: MDA-MB-435
# [16] = test system: EKVX NSCLC
# [17] = test system: OVCAR-8 ovarian
# [18] = test system: A498 renal
# [19] = test system: SNB-19 CNS
# [20] = test system: NCI-H460 lung
# [21] = test system: HCT-116 colon
# [22] = test system: OVCAR-3 ovarian
# [23] = test system: HOP-62 NSCLC
# [24] = test system: HCC-2998 colon
# [25] = test system: U251 CNS
# [26] = test system: NCI/ADR-RES ovarian
# [27] = test system: MDA-MB-231 breast
# [28] = test system: BT-549 breast
# [29] = test system: UO-31 renal
# [30] = test system: MDA-N
# [31] = test system: MALME-3M melanoma
# [32] = test system: KM12 colon
# [33] = test system: CCRF-CEM leukemia
# [34] = test system: RXF 393 renal
# [35] = test system: LOX IMVI melanoma
# [36] = test system: OVCAR-5 ovarian
# [37] = test system: M14 melanoma
# [38] = test system: UACC-257 melanoma
# [39] = test system: 786-0 renal
# [40] = test system: ACHN renal
# [41] = test system: A549 NSCLC
# [42] = test system: CAKI-1 renal
# [43] = test system: UACC-62 melanoma
# [44] = test system: T-47D breast
# [45] = test system: OVCAR-4 ovarian
# [46] = test system: SK-MEL-5 melanoma
# [47] = test system: COLO 205 colon
# [48] = test system: SR leukemia
# [49] = test system: IGROV1 ovarian
# [50] = test system: MCF7 breast
# [51] = test system: NCI-H226 lung
# [52] = test system: HCT-15 colon
# [53] = test system: SK-MEL-2 melanoma
# [54] = test system: SNB-75 CNS
# [55] = test system: DU-145 prostate
# [56] = test system: HL-60(TB) leukemia
# [57] = test system: SK-MEL-28 melanoma
# [58] = test system: HS 578T breast
# [59] = test system: SF-268 CNS
compound,measurement,setting,value
CCOC(=O)Nn1cnnc1C,TGI,[1],> 100 µM
same,TGI,[2],> 100 µM
same,TGI,[3],> 100 µM
same,TGI,[4],> 100 µM
same,TGI,[5],> 100 µM
same,TGI,[6],> 100 µM
same,TGI,[7],> 100 µM
same,TGI,[8],> 100 µM
same,TGI,[9],> 100 µM
same,TGI,[10],> 100 µM
same,TGI,[11],> 100 µM
same,TGI,[12],> 100 µM
same,TGI,[13],> 100 µM
same,TGI,[14],> 100 µM
same,TGI,[15],> 100 µM
same,TGI,[16],> 100 µM
same,TGI,[17],> 100 µM
same,TGI,[18],> 100 µM
same,TGI,[19],> 100 µM
same,TGI,[20],> 100 µM
same,TGI,[21],> 100 µM
same,TGI,[22],> 100 µM
same,TGI,[23],> 100 µM
same,TGI,[24],> 100 µM
same,TGI,[25],> 100 µM
same,TGI,[26],> 100 µM
same,TGI,[27],> 100 µM
same,TGI,[28],> 100 µM
same,TGI,[29],> 100 µM
same,TGI,[30],> 100 µM
same,TGI,[31],> 100 µM
same,TGI,[32],> 100 µM
same,TGI,[33],> 100 µM
same,TGI,[34],> 100 µM
same,TGI,[35],> 100 µM
same,TGI,[36],> 100 µM
same,TGI,[37],> 100 µM
same,TGI,[38],> 100 µM
same,TGI,[39],> 100 µM
same,TGI,[40],> 100 µM
same,TGI,[41],> 100 µM
same,TGI,[42],> 100 µM
same,TGI,[43],> 100 µM
same,TGI,[44],> 100 µM
same,TGI,[45],> 100 µM
same,TGI,[46],> 100 µM
same,TGI,[47],> 100 µM
same,TGI,[48],> 100 µM
same,TGI,[49],> 100 µM
same,TGI,[50],> 100 µM
same,TGI,[51],> 100 µM
same,TGI,[52],> 100 µM
same,TGI,[53],> 100 µM
COC1(C)OC[C@@]2(C)OC(C)C1(C)C2O[Si](C(C)C)(C(C)C)C(C)C (some centres undefined),TGI,[1],80.2 µM
same,TGI,[2],59.1 µM
same,TGI,[3],47.3 µM
same,TGI,[4],63 µM
same,TGI,[5],> 100 µM
same,TGI,[6],58.4 µM
same,TGI,[54],69.4 µM
same,TGI,[7],62.5 µM
same,TGI,[8],> 100 µM
same,TGI,[9],> 100 µM
same,TGI,[10],> 100 µM
same,TGI,[11],82.3 µM
same,TGI,[12],50.9 µM
same,TGI,[13],> 100 µM
same,TGI,[14],89.3 µM
same,TGI,[15],> 100 µM
same,TGI,[16],70.9 µM
same,TGI,[17],> 100 µM
same,TGI,[18],> 100 µM
same,TGI,[19],> 100 µM
same,TGI,[20],62.9 µM
same,TGI,[21],> 100 µM
same,TGI,[22],50 µM
same,TGI,[23],> 100 µM
same,TGI,[24],40.8 µM
same,TGI,[55],> 100 µM
same,TGI,[56],40.4 µM
same,TGI,[25],> 100 µM
same,TGI,[26],60.3 µM
same,TGI,[27],> 100 µM
same,TGI,[29],96.7 µM
same,TGI,[30],> 100 µM
same,TGI,[57],> 100 µM
same,TGI,[58],86.8 µM
same,TGI,[31],51 µM
same,TGI,[32],> 100 µM
same,TGI,[33],54.6 µM
same,TGI,[34],57 µM
same,TGI,[35],42.6 µM
same,TGI,[36],71.8 µM
same,TGI,[37],> 100 µM
same,TGI,[38],47.6 µM
same,TGI,[39],> 100 µM
same,TGI,[40],62.2 µM
same,TGI,[41],> 100 µM
same,TGI,[42],88 µM
same,TGI,[43],> 100 µM
same,TGI,[44],71.3 µM
same,TGI,[45],> 100 µM
same,TGI,[59],> 100 µM
same,TGI,[46],52.5 µM
same,TGI,[47],32.3 µM
same,TGI,[48],85.7 µM
same,TGI,[49],78.5 µM
same,TGI,[50],32.9 µM
same,TGI,[51],45.8 µM
same,TGI,[52],48 µM
same,TGI,[53],45.2 µM
Cc1nc2nn[nH]n2c(=O)c1CCO,TGI,[1],> 100 µM
same,TGI,[2],> 100 µM
same,TGI,[3],> 100 µM
same,TGI,[4],> 100 µM
same,TGI,[5],> 100 µM
same,TGI,[6],> 100 µM
same,TGI,[54],85.7 µM
same,TGI,[7],> 100 µM
same,TGI,[8],> 100 µM
same,TGI,[9],> 100 µM
same,TGI,[10],> 100 µM
same,TGI,[11],> 100 µM
same,TGI,[12],> 100 µM
same,TGI,[13],> 100 µM
same,TGI,[14],> 100 µM
same,TGI,[15],> 100 µM
same,TGI,[16],> 100 µM
same,TGI,[17],> 100 µM
same,TGI,[18],> 100 µM
same,TGI,[19],> 100 µM
same,TGI,[20],> 100 µM
same,TGI,[21],> 100 µM
same,TGI,[22],> 100 µM
same,TGI,[23],> 100 µM
same,TGI,[24],> 100 µM
same,TGI,[55],> 100 µM
same,TGI,[56],> 100 µM
same,TGI,[25],> 100 µM
same,TGI,[26],> 100 µM
same,TGI,[27],> 100 µM
same,TGI,[29],> 100 µM
same,TGI,[30],> 100 µM
same,TGI,[57],> 100 µM
same,TGI,[58],> 100 µM
same,TGI,[31],> 100 µM
same,TGI,[32],> 100 µM
same,TGI,[33],> 100 µM
same,TGI,[34],> 100 µM
same,TGI,[35],> 100 µM
same,TGI,[36],> 100 µM
same,TGI,[37],> 100 µM
same,TGI,[38],> 100 µM
same,TGI,[39],> 100 µM
same,TGI,[40],> 100 µM
same,TGI,[41],> 100 µM
same,TGI,[42],> 100 µM
same,TGI,[43],> 100 µM
same,TGI,[44],> 100 µM
same,TGI,[45],> 100 µM
same,TGI,[59],> 100 µM
same,TGI,[46],> 100 µM
same,TGI,[47],> 100 µM
same,TGI,[48],> 100 µM
same,TGI,[49],> 100 µM
same,TGI,[50],> 100 µM
same,TGI,[51],> 100 µM
same,TGI,[52],> 100 µM
same,TGI,[53],> 100 µM
